Laboratory results taken from ChEMBL document CHEMBL1201862, “PubChem BioAssay data set” (2004).
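Dose response: 5 concentrations. Exposure: 48 h. Format: 96-well plates. Endpoint: linear interpolation; highest concentration if not reached. GI50 = concentration required for 50% inhibition of growth.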 Active and inactive are the calls of the source. Rule as the data show it: active = GI50 up to about 1.1 µM and inactive = higher.

Experiments:
Assay in all cases: NCI-60 cell line screen, 48 h
[1] = system: SK-MEL-28
[2] = system: HL-60
[3] = system: SW-620
[4] = system: SK-MEL-2
[5] = system: HOP-92
[6] = system: SK-MEL-5
[7] = system: A498
[8] = system: NCI-H23
[9] = system: SNB-19
[10] = system: ACHN
[11] = system: CCRF-CEM
[12] = system: SNB-75
[13] = system: NCI-H522
[14] = system: 786-0
[15] = system: IGROV-1
[16] = system: HCT-116
[17] = system: HOP-62
[18] = system: LOX IMVI
[19] = system: Malme-3M
[20] = system: NCI-H460

Row | SMILES | GI50 [1] | GI50 [2] | GI50 [3] | GI50 [4] | GI50 [5] | GI50 [6] | GI50 [7] | GI50 [8] | GI50 [9] | GI50 [10] | GI50 [11] | GI50 [12] | GI50 [13] | GI50 [14] | GI50 [15] | GI50 [16] | GI50 [17] | GI50 [18] | GI50 [19] | GI50 [20]
1 | O=C1CC(c2ccsc2)n2cccc21 (configuration not stated) | > 100 µM (inactive) | > 100 µM (inactive) | > 100 µM (inactive) | > 100 µM (inactive) | > 100 µM (inactive) | > 100 µM (inactive) | > 100 µM (inactive) | > 100 µM (inactive) | > 100 µM (inactive) | > 100 µM (inactive) | > 100 µM (inactive) | 32.1 µM (inactive) | > 100 µM (inactive) | > 100 µM (inactive) | > 100 µM (inactive) | > 100 µM (inactive) | > 100 µM (inactive) |  |  | 
2 | CCc1ccccc1NC(=O)c1cccc([N+](=O)[O-])c1O | 28.2 µM (inactive) | 30.6 µM (inactive) | 38.4 µM (inactive) |  | 14.4 µM (inactive) | 8.89 µM (inactive) | 25.3 µM (inactive) | 18.7 µM (inactive) | 41.7 µM (inactive) | 18.1 µM (inactive) | 28.2 µM (inactive) | 20.9 µM (inactive) | 21 µM (inactive) | 71.6 µM (inactive) | 23 µM (inactive) | 24.2 µM (inactive) | 19 µM (inactive) | 16.3 µM (inactive) | 24.4 µM (inactive) | 20.8 µM (inactive)
3 | CC(=O)OCC1OC(O[C@@H]2C[C@H]3C(C)(C)[C@@H](OC(C)=O)CC[C@]3(C)[C@H]3CC[C@]45C[C@]4(CC[C@H]5[C@@H](C)C[C@@H](O)[C@H](O)C(C)(C)F)[C@@]32C)C(O)C(O)C1O (some centres not stated) | 1.63 µM (inactive) | 1.09 µM (active) | 1.85 µM (inactive) |  | 1.93 µM (inactive) | 1.72 µM (inactive) | 18.2 µM (inactive) | 2.22 µM (inactive) | 1.68 µM (inactive) | 37.5 µM (inactive) | 1.21 µM (inactive) |  | 1.68 µM (inactive) | 1.69 µM (inactive) | 2.06 µM (inactive) | 1.56 µM (inactive) | 50 µM (inactive) | 1.77 µM (inactive) | 1.71 µM (inactive) | 16.9 µM (inactive)
4 | O=C1CCCN1C(=O)CS(=O)(=O)c1ccccc1 | > 100 µM (inactive) |  | > 100 µM (inactive) | > 100 µM (inactive) | > 100 µM (inactive) | > 100 µM (inactive) | > 100 µM (inactive) | > 100 µM (inactive) | > 100 µM (inactive) | > 100 µM (inactive) | > 100 µM (inactive) | > 100 µM (inactive) | > 100 µM (inactive) | > 100 µM (inactive) | > 100 µM (inactive) | > 100 µM (inactive) | > 100 µM (inactive) | > 100 µM (inactive) | > 100 µM (inactive) | > 100 µM (inactive)
5 | COC(=O)C(C#N)C1NC(=O)c2ccccc21 (configuration not stated) | > 100 µM (inactive) | > 100 µM (inactive) | > 100 µM (inactive) |  | > 100 µM (inactive) | > 100 µM (inactive) | > 100 µM (inactive) | > 100 µM (inactive) | > 100 µM (inactive) | > 100 µM (inactive) | > 100 µM (inactive) | 9.71 µM (inactive) | > 100 µM (inactive) | > 100 µM (inactive) | > 100 µM (inactive) | > 100 µM (inactive) | > 100 µM (inactive) | > 100 µM (inactive) | > 100 µM (inactive) | > 100 µM (inactive)
6 | CCCN(CCCCC(NC(C)=O)C(=O)NCc1ccccc1)C(=O)NC (configuration not stated) | > 100 µM (inactive) |  | > 100 µM (inactive) | > 100 µM (inactive) | > 100 µM (inactive) | > 100 µM (inactive) | > 100 µM (inactive) | > 100 µM (inactive) | > 100 µM (inactive) | > 100 µM (inactive) | > 100 µM (inactive) | 95.7 µM (inactive) | > 100 µM (inactive) | > 100 µM (inactive) | > 100 µM (inactive) | > 100 µM (inactive) | > 100 µM (inactive) | > 100 µM (inactive) | > 100 µM (inactive) | > 100 µM (inactive)
7 | CN(C)Cc1cc(/C(=C(\C#N)c2ccccc2)c2ccc(O)cc2)ccc1O | 13.6 µM (inactive) |  | 21 µM (inactive) | 17.3 µM (inactive) | 14.4 µM (inactive) | 14.5 µM (inactive) | 32.2 µM (inactive) | 19.1 µM (inactive) | 28.8 µM (inactive) | 13.9 µM (inactive) | 18.4 µM (inactive) | 17.5 µM (inactive) | 12.9 µM (inactive) | 15 µM (inactive) | 30.5 µM (inactive) | 10.2 µM (inactive) | 14.4 µM (inactive) | 12.1 µM (inactive) | 16.1 µM (inactive) | 19.6 µM (inactive)
8 | NC(=O)CC(N)C(=O)NC(Cc1ccccc1)C(=O)NC(Cc1ccccc1)NC(=O)C(Cc1c[nH]c2ccccc12)C(=O)O (configuration not stated) | > 100 µM (inactive) |  | > 100 µM (inactive) | > 100 µM (inactive) | > 100 µM (inactive) | 49.4 µM (inactive) | > 100 µM (inactive) | > 100 µM (inactive) | > 100 µM (inactive) | > 100 µM (inactive) | > 100 µM (inactive) | 71.8 µM (inactive) | > 100 µM (inactive) | > 100 µM (inactive) | > 100 µM (inactive) | > 100 µM (inactive) | > 100 µM (inactive) | > 100 µM (inactive) | > 100 µM (inactive) | > 100 µM (inactive)
9 | Cc1cn(C2CC(O)C(COC(=O)NCCC(F)(F)C(F)(F)C(F)(F)C(F)(F)F)O2)c(=O)[nH]c1=O (configuration not stated) | > 100 µM (inactive) | > 100 µM (inactive) | > 100 µM (inactive) |  | 54.6 µM (inactive) | > 100 µM (inactive) | > 100 µM (inactive) | > 100 µM (inactive) | > 100 µM (inactive) | > 100 µM (inactive) | > 100 µM (inactive) | 54.7 µM (inactive) | > 100 µM (inactive) | > 100 µM (inactive) | > 100 µM (inactive) | 88.5 µM (inactive) | > 100 µM (inactive) |  | > 100 µM (inactive) | > 100 µM (inactive)
10 | C=C(C)CCC1CC=[N+]([O-])OC1C(C)(C)C (configuration not stated) |  | 2.65 µM (inactive) | 44.5 µM (inactive) |  | > 100 µM (inactive) | 32.5 µM (inactive) | > 100 µM (inactive) |  |  | 68.9 µM (inactive) | 11.4 µM (inactive) | 31.3 µM (inactive) | 24.2 µM (inactive) | 96.4 µM (inactive) | 34.6 µM (inactive) | 21.8 µM (inactive) | 79.3 µM (inactive) | 18.5 µM (inactive) |  | 51.8 µM (inactive)
11 | CCCCSCc1nc2nc(Cl)c(Cl)nc2[nH]1 | 23 µM (inactive) |  | 28.5 µM (inactive) | 18.7 µM (inactive) | 24.5 µM (inactive) | 11.8 µM (inactive) | 21.8 µM (inactive) | 16.8 µM (inactive) | 35.3 µM (inactive) | 23.9 µM (inactive) | 11.3 µM (inactive) | 19 µM (inactive) | 17.8 µM (inactive) | 25.6 µM (inactive) | 33.1 µM (inactive) | 19.5 µM (inactive) | 16.1 µM (inactive) | 21.7 µM (inactive) | 20.3 µM (inactive) | 20.6 µM (inactive)
12 | Nc1ccc(S(=O)(=O)c2ccc(NC(=O)c3cccnc3)cc2)cc1 | > 100 µM (inactive) | 45.1 µM (inactive) | > 100 µM (inactive) |  | > 100 µM (inactive) | 42.4 µM (inactive) | > 100 µM (inactive) | > 100 µM (inactive) | > 100 µM (inactive) | > 100 µM (inactive) |  | 30.8 µM (inactive) | 53.2 µM (inactive) | > 100 µM (inactive) | > 100 µM (inactive) | > 100 µM (inactive) | > 100 µM (inactive) | > 100 µM (inactive) | > 100 µM (inactive) | > 100 µM (inactive)
13 | N#Cc1cnn2ccn(C3OC(COC(=O)c4ccccc4)C(OC(=O)c4ccccc4)C3OC(=O)c3ccccc3)c12 (configuration not stated) | > 21.5 µM (inactive) | > 21.5 µM (inactive) | > 21.5 µM (inactive) |  | > 31.6 µM (inactive) | > 21.5 µM (inactive) | 20.5 µM (inactive) | > 21.5 µM (inactive) | > 21.5 µM (inactive) | > 21.5 µM (inactive) | > 21.5 µM (inactive) | 1 µM (active) | > 21.5 µM (inactive) | > 21.5 µM (inactive) | > 21.5 µM (inactive) | > 21.5 µM (inactive) | > 21.5 µM (inactive) | > 31.6 µM (inactive) | > 21.5 µM (inactive) | > 21.5 µM (inactive)
14 | CCO/N=[N+](\[O-])N(CC)CC | > 100 µM (inactive) | > 100 µM (inactive) | > 100 µM (inactive) | > 100 µM (inactive) | > 100 µM (inactive) | > 100 µM (inactive) | > 100 µM (inactive) | > 100 µM (inactive) | > 100 µM (inactive) | > 100 µM (inactive) | > 100 µM (inactive) |  | > 100 µM (inactive) |  | > 100 µM (inactive) | > 100 µM (inactive) | > 100 µM (inactive) | > 100 µM (inactive) |  | > 100 µM (inactive)
15 | Nc1n[n+](-c2ccccc2)no1 |  | 14.9 µM (inactive) | 45.8 µM (inactive) |  | 25.4 µM (inactive) | 52.7 µM (inactive) | 46 µM (inactive) | 65.3 µM (inactive) | > 100 µM (inactive) | 8.49 µM (inactive) | 31.8 µM (inactive) |  | 41.7 µM (inactive) | 52.1 µM (inactive) | 24.4 µM (inactive) | 28.3 µM (inactive) | 31.6 µM (inactive) | 42 µM (inactive) | 34.7 µM (inactive) | 27.6 µM (inactive)
